Source: publication PMC11050599, “Novel Tetracyclic Azaphenothiazines with the Quinoline Ring as New Anticancer and Antibacterial Derivatives of Chlorpromazine” (International Journal of Molecular Sciences, 2024)
Values after ≈ are worked out from the molar mass of the structure shown. Like-named read-outs stand apart in the source and are kept apart here.

Columns and labels:
[1] = system: MiaPaCa-2 (pancreas cancer); test: MTT assay, MiaPaCa-2 cells; assay type: cell-based, human; conditions: for IC50: Homo sapiens, MIA PaCa-2, MTT, 72 h, read-out: IC50 MiaPaCa-2; for SI MiaPaCa-2: SI = IC50 for normal cell line (HaCaT)/IC50 cancer cell line
Protocol: (§1) The human cell lines, such as A549 (lung cancer), MDA-MB-231 (breast cancer), MiaPaca-2 (pancreatic cancer), PC3 (metastatic prostate cancer), HCT-116 (colon carcinoma), and HaCaT (immortalized keratinocytes), were sourced from the American Type Culture Collection (ATCC) in Rockville, USA. Culturing conditions varied as follows: HCT116 cells were cultured in MEM (ThermoSci, Waltham, MA, USA), A549, MDA-MB-231, MiaPaca, HaCaT cells in DMEM High Glucose and PC3 cells were cultured in RPMI (Biowest SAS, Nuaillé, France). The growth medium consisted of 10% fetal bovine serum (FBS, Sigma-Aldrich, St. Louis, MO, USA), 20 mM HEPES (Biowest, Nuaillé, France), and antibiotics (100 U/mL of penicillin and 100 μg/mL of streptomycin) from Gibco, Grand Island, NY, USA. […] These compounds were added to 96-well plates containing study cells (1 × 10^4 cells per well) and incubated for 72 h. […] Cell absorbance results were incorporated into the formula for calculating the relative MTT level (%), enabling the assessment of cell viability following exposure to the test compounds. The cell viability percentage represents the MTT reduction in cells treated with the test compounds compared to the control sample, where only the medium was added to the cells.

A549 (lung cancer) = test: MTT assay, A549 cells; assay type: cell-based, human; conditions: for IC50: Homo sapiens, A549, MTT, 72 h, mean SD, read-out: IC50 A549; for SI A549: SI = IC50 for normal cell line (HaCaT)/IC50 cancer cell line
Protocol: as §1

HCT116 (colon cancer) = test: MTT assay, HCT116 cells; assay type: cell-based, human; conditions: for IC50: Homo sapiens, HCT-116, MTT, 72 h, read-out: IC50 HCT116; for SI HCT116: SI = IC50 for normal cell line (HaCaT)/IC50 cancer cell line
Protocol: as §1

PC3 (prostate cancer) = test: MTT assay, PC3 cells; assay type: cell-based, human; conditions: for IC50: Homo sapiens, PC-3, MTT, 72 h, read-out: IC50 PC3; for SI PC3: SI = IC50 for normal cell line (HaCaT)/IC50 cancer cell line
Protocol: as §1

P. aeruginosa ATCC 15442 = test: MIC broth microdilution; assay type: cell-based; conditions: Pseudomonas aeruginosa, ATCC15442; 19 h, 35 °C; read-out: MIC P. aeruginosa ATCC 15442
Excerpt: (§2) To evaluate the antibacterial effectiveness of chloroquinobenzothiazine derivatives, various bacterial strains from international microbe collections such as the American Type Culture Collection (ATCC) and the National Collection of Type Culture (NCTC) were examined, alongside a panel of clinical rods. This included two Gram-negative organisms, E. coli ATCC 25922 and P. aeruginosa ATCC 15442, and a series of six Gram-positive strains: S. aureus NCTC 4163; S. aureus ATCC 29213, 25923, and 6538; and S. epidermidis ATCC 12228 and 35984. […] The MIC was determined using the two-fold serial broth microdilution method in 96-well microtitration plates containing Mueller-Hinton II broth medium (Becton Dickinson, Franklin Lakes, NJ, USA). The final inoculum for all tested bacteria was adjusted to […] (colony-forming units per milliliter). The stock solution of the tested compounds was prepared in dimethyl sulfoxide (DMSO) and diluted to a maximum of 1% solvent content with a sterile medium.

S. aureus ATCC 29213 = test: MIC broth microdilution; assay type: cell-based; conditions: Staphylococcus aureus, ATCC29213; 19 h, 35 °C; read-out: MIC S. aureus ATCC 29213
Excerpt: as §2

S. aureus NCTC 4163 = test: MIC broth microdilution; assay type: cell-based; conditions: Staphylococcus aureus, NCTC4163; 19 h, 35 °C; read-out: MIC S. aureus NCTC 4163
Excerpt: as §2

[2] = system: S. epidermidis ATCC 35984; test: MIC broth microdilution; assay type: cell-based; conditions: Staphylococcus epidermidis, ATCC35984; 19 h, 35 °C; read-out: MIC S. epidermidis ATCC 35984
Excerpt: as §2

[3] = system: S. epidermidis ATCC 12228; test: MIC broth microdilution; assay type: cell-based; conditions: Staphylococcus epidermidis, ATCC12228; 19 h, 35 °C; read-out: MIC S. epidermidis ATCC 12228
Excerpt: as §2

S. aureus ATCC 6538 = test: MIC broth microdilution; assay type: cell-based; conditions: Staphylococcus aureus, ATCC6538; 19 h, 35 °C; read-out: MIC S. aureus ATCC 6538
Excerpt: as §2

E. coli ATCC 25922 = test: MIC broth microdilution; assay type: cell-based; conditions: Escherichia coli, ATCC25922; 19 h, 35 °C; read-out: MIC E. coli ATCC 25922
Excerpt: as §2

S. aureus ATCC 25923 = test: MIC broth microdilution; assay type: cell-based; conditions: Staphylococcus aureus, ATCC25923; 19 h, 35 °C; read-out: MIC S. aureus ATCC 25923
Excerpt: as §2

[4] = system: MDA-MB-231 (breast cancer); test: MTT assay, MDA-MB-231 cells; assay type: cell-based, human; conditions: for IC50: Homo sapiens, MDA-MB-231, MTT, 72 h, MDA-MB231, read-out: IC50 MDA; for SI MDA: SI = IC50 for normal cell line (HaCaT)/IC50 cancer cell line
Protocol: as §1

[5] = system: HaCaT (immortalized human keratinocytes); test: MTT assay, HaCaT normal cells; assay type: cell-based; conditions: Homo sapiens, HaCaT, MTT, 72 h, normal cells
Protocol: as §1

A549 cells = test: Annexin V-FITC/PI apoptosis flow cytometry, A549; assay type: cell-based, human
Protocol: (§3) To analyze the number of cells in early apoptosis, late apoptosis, or necrosis, A549, MiaPaca-2, and HCT-116 cell lines were cultured in 6-well plates with a seeding density of 1 × 10^5 cells per well. These cells were then treated with selected compounds (4, 5, and 8) at their respective IC50 concentrations and incubated for 72 h. Subsequently, a commercially available kit, the FITC: Annexin V Apoptosis Detection Kit I from BD Biosciences Pharmingen in San Jose, CA, USA, was utilized to assess apoptosis. After 72 h the cells were harvested, washed, and labeled with Annexin V-FITC and propidium iodide (PI) following the manufacturer’s protocol (Becton Dickinson), as previously described. The stained cells were analyzed by flow cytometry. The cells were identified as early apoptotic (Annexin V+/PI−) or late apoptotic/necrotic (Annexin V+/PI+).

HCT116 cells [6] = test: Cell cycle analysis by flow cytometry, HCT116; assay type: cell-based, human; conditions: IC50, 24 h, compared to the control
Protocol: In brief, cells were seeded at a density of 1 × 10^5 cells/well on a six-well plate and allowed to adhere for 24 h. […] Both population cells (the attached and detached) were collected and centrifuged at 400× g for 5 min at 4 °C. After centrifugation, the cells were washed twice with 0.9% NaCl and subsequently fixed in 500 μL of 70 % cold ethanol overnight.
Before analysis, the fixed cells underwent another centrifugation step at 850× g for 5 min at 4 °C and were washed with PBS. Following the washes, the cells were incubated with 50 μL of RNase (100 μg/mL) and 200 μL of propidium iodide (PI) (50 μg/mL) at 37 °C for 30 min in the dark. Finally, 100 μL of PBS was added to each sample. Flow cytometry (Becton Dickinson FACS Verse, Franklin Lakes, NJ, USA) was then used to analyze the cell cycle distribution, identifying cells in various stages including sub-G1, G0/G1, S, and G2/M phases. Each assay was performed in quadruplicate.

HCT116 cells [7] = test: Annexin V-FITC/PI apoptosis flow cytometry, HCT116; assay type: cell-based, human
Protocol: as §3

[8] = representative dot plot, Figure 4A, IC50, 72 h
[9] = representative dot plot, Figure 4C, IC50, 72 h

SMILES | IC50 [1] | SI MiaPaCa-2 [1] | IC50 (A549 (lung cancer)) | SI A549 (A549 (lung cancer)) | IC50 (HCT116 (colon cancer)) | SI HCT116 (HCT116 (colon cancer)) | IC50 (PC3 (prostate cancer)) | SI PC3 (PC3 (prostate cancer)) | MIC (P. aeruginosa ATCC 15442) | MIC (S. aureus ATCC 29213) | MIC (S. aureus NCTC 4163) | MIC [2] | MIC [3] | MIC (S. aureus ATCC 6538) | MIC (E. coli ATCC 25922) | MIC (S. aureus ATCC 25923) | IC50 [4] | SI MDA [4] | IC50 ([5]; read-out: IC50 HaCaT (Table 3)) | also measured
Clc1ccc2c(c1)N(Cc1cn(-c3ccccc3)nn1)c1nc3ccccc3cc1S2 [Compound 27, 8-Chloro-6-((1-phenyl-1H-1,2,3-triazol-4-yl)methyl)-quino[3,2-b]benzo[1,4]thiazine] | 37.4 ± 5.6 µM | 1.9 | 27.5 ± 6.2 µM | 2.5 | 49.6 ± 4.7 µM | 1.4 | > 100 µM | 1.0 | > 256 mg/L | > 256 mg/L | > 256 mg/L | > 256 mg/L | > 256 mg/L | > 256 mg/L | > 256 mg/L | > 256 mg/L | > 100 µM | 0.7 | 70.2 ± 10.4 µM | IC50 ([5]; read-out: IC50 HaCaT (Table 4)): 71.7 ± 7.5 µM
Cc1ccc(S(=O)(=O)NCCCCN2c3cc(Cl)ccc3Sc3cc4ccccc4nc32)cc1 [Compound 25, N-(4-(8-Chloroquino[3,2-b]benzo[1,4]thiazin-6-yl)butyl)-4-methylbenzenesulfonamide] | > 100 µM | 1.0 | 9.45 ± 1.3 µM | – | > 100 µM | 1.0 | 48.6 ± 4.7 µM | 2.0 | > 256 mg/L | > 256 mg/L | > 256 mg/L | > 256 mg/L | > 256 mg/L | > 256 mg/L | > 256 mg/L | > 256 mg/L | > 100 µM | 1.0 | < 100 µM | cells in late apoptosis or necrosis, A549 (A549 cells; compound at IC50, 72 h): 82%; A549: Alive (A549 cells; [8]): 16.32%; A549: Early Apoptotic (A549 cells; [8]): 0.60%; A549: Necrotic (A549 cells; [8]): 32.75%; A549: Necrotic/Late Apoptotic (A549 cells; [8]): 50.34%; IC50 ([5]; read-out: IC50 HaCaT (Table 4)): > 100 µM
CS(=O)(=O)NCCCCN1c2cc(Cl)ccc2Sc2cc3ccccc3nc21 [Compound 23, N-(4-(8-Chloroquino[3,2-b]benzo[1,4]thiazin-6-yl)butyl)methanesulfonamide] | 98.4 ± 5.6 µM | 1.0 | 30.5 ± 8.3 µM | 3.3 | 0.7 ± 0.08 µM | 143 | > 100 µM | 1.0 | > 256 mg/L | > 256 mg/L | > 256 mg/L | > 256 mg/L | > 256 mg/L | > 256 mg/L | > 256 mg/L | > 256 mg/L | > 100 µM | – | > 100 µM | increase in the cell amount at the sub-G1 phase, HCT116 (HCT116 cells [6]): 11 fold; increase in the number of cells in the G2/M phase, HCT116 (HCT116 cells [6]): approximately 1.3 fold; increase in the number of cells in the S phase, HCT116 (HCT116 cells [6]): approximately 2 fold; cells in late apoptosis/necrosis, HCT116 (HCT116 cells [7]; compound at IC50, 72 h): 93%; HCT-116: Alive (HCT116 cells [7]; [9]): 3.42%; HCT-116: Early Apoptotic (HCT116 cells [7]; [9]): 0.76%; HCT-116: Necrotic (HCT116 cells [7]; [9]): 3.85%; HCT-116: Necrotic/Late Apoptotic (HCT116 cells [7]; [9]): 91.97%
Clc1ccc2c(c1)N(CCN1CCCC1)c1nc3ccccc3cc1S2 [Compound 9, 8-Chloro-6-(2-(pyrrolidin-1-yl)ethyl)-quino[3,2-b]benzo[1,4]thiazine] | 57.4 ± 9.6 µM | 1.7 | 17.4 ± 4.1 µM | 5.7 | 17.5 ± 1.4 µM | 5.7 | 77.1 ± 9.4 µM | 1.3 | > 256 mg/L | 16 mg/L (≈ 41.9 µM) | 16 mg/L (≈ 41.9 µM) | 16 mg/L (≈ 41.9 µM) | 16 mg/L (≈ 41.9 µM) | 16 mg/L (≈ 41.9 µM) | > 256 mg/L | 16 mg/L (≈ 41.9 µM) | 77.1 ± 1.6 µM | 1.3 | > 100 µM | –
CCN(CC)CCN1c2cc(Cl)ccc2Sc2cc3ccccc3nc21 [Compound 7, 2-(8-Chloroquino[3,2-b]benzo[1,4]thiazin-6-yl)-N,N-diethylethan-1-amine] | – | – | 27.2 ± 8.4 µM | 3.7 | – | – | – | – | > 256 mg/L | 8 mg/L (≈ 20.8 µM) | 8 mg/L (≈ 20.8 µM) | 8 mg/L (≈ 20.8 µM) | 8 mg/L (≈ 20.8 µM) | 8 mg/L (≈ 20.8 µM) | > 256 mg/L | 8 mg/L (≈ 20.8 µM) | > 100 µM | 1.0 | > 100 µM | –
N#Cc1ccc(Cn2cc(CN3c4cc(Cl)ccc4Sc4cc5ccccc5nc43)nn2)cc1 [Compound 32, 4-((4-((8-Chloroquino[3,2-b]benzo[1,4]thiazin-6-yl)methyl)-1H-1,2,3-triazol-1-yl)methyl)benzonitrile] | – | – | > 100 µM | 1.0 | – | – | – | – | > 256 mg/L | > 256 mg/L | > 256 mg/L | > 256 mg/L | > 256 mg/L | > 256 mg/L | > 256 mg/L | > 256 mg/L | > 100 µM | 1.0 | > 100 µM | –
C#CCN1c2cc(Cl)ccc2Sc2cc3ccccc3nc21 [Compound 26, 8-chloro-6-propynyquinobenzothiazine] | – | – | > 100 µM | 1.0 | – | – | – | – | > 256 mg/L | > 256 mg/L | > 256 mg/L | > 256 mg/L | > 256 mg/L | > 256 mg/L | > 256 mg/L | > 256 mg/L | 95.8 ± 9.2 µM | 0.7 | 71.7 ± 5.7 µM | –
